Results on eight molecules are retold here after ChEMBL document CHEMBL1201862, “PubChem BioAssay data set” (2004).

Assay [1] is described as follows: viability of HCT116 lacking mutant beta-catenin – cell-based, human colon tumor, dose response (AID 1045).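 Also: HCT116 colon tumor cells with beta catenin knocked out; cells exposed to compound for 60 hours.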 It counts as functional.
Assay [2] can be described thus: viability of PTEN-deleted HCT116 cells – cell-based, HCT116 PTEN knockout, dose response (AID 1047).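 Also: HCT116 colon tumor cells with PTEN knocked out; cells exposed to compound for 60 hours before readout; potency for loss of cell viability measured by luminescence.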 It counts as functional.
The next assay concerns the target Melanocortin receptor 4 (Homo sapiens, UniProt P32245). It counts as functional, cell-based.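 Also: Cell-based assay with luminescence read-out, confirmatory dose-response testing for agonist activity of biased ligands at MC4R; human U2OS cells with tagged receptor and beta-arrestin; potency of agonists that increase receptor coupling to beta-arrestin.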
A short description of assay [3]: cells. It counts as functional.
Assay [4] can be described thus: THP-1 cell cytotoxicity, dose response, cytotoxicity control for non-replicating M. tuberculosis project (AID 489025). It counts as functional.
Assay [5] can be described thus: Trypanosoma cruzi growth suppression in host cells – NIH3T3 host cells, beta-gal luminescence, confirmation (AID 2044).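 Also: intracellular parasites grown in NIH/3T3 mouse fibroblasts as host cells; luminescent beta-galactosidase reporter signal from transgenic T. cruzi replicating inside host cells; inhibitors lower the luminescence signal.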 It counts as functional, cell-based.
Assay [6] is described as follows: NIH3T3 cell viability loss – ATP luminescence, mouse fibroblasts, counter-screen, dose response (AID 2010).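 Also: cells exposed to compound for about 90 hours before reading.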 It counts as functional, cell-based.
Assay [7] is described as follows: Luminescence Cell-Based Dose Retest to Confirm Inhibitors of Cancer Stem Cells. [Related pubchem assays (depositor defined):AID2717, AID2721]. It counts as functional. Conditions: Homo sapiens.
Assay [8] has as its target FAD-linked sulfhydryl oxidase ALR (Homo sapiens, UniProt P55789). As to the kind of experiment: ALR-catalysed DTT oxidation blockers – biochemical, H2O2 detection, luminescence, cherry-pick, dose response (AID 493248).
Assay [9] has as its target Cyclin-dependent kinase 5/CDK5 activator 1 (Homo sapiens, UniProt Q00535). Nature of the assay: blockade of human CDK5 activity – biochemical, cherry-picked samples, set 2, dose response (AID 504545).
The target in another assay is Estrogen receptor beta (Homo sapiens, UniProt Q92731).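 Also: recombinant ER-beta bound to coactivator SRC1 peptide in presence of estradiol agonist; inhibitors block coactivator peptide binding and lower the FRET signal.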
Assay [10] has as its target Voltage-dependent T-type calcium channel subunit alpha-1H (Homo sapiens, UniProt O95180). It counts as functional.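 Also: channel activity triggered by adding a high calcium stimulation buffer.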
The nature of assay [11]: A Cell Based Secondary Assay To Explore Cytotoxicity of Compounds that Sensitize Mycobacterium Tuberculosis to Beta-Lactam Antibiotics. It counts as functional.
A short description of assay [12]: P. falciparum Dd2 growth inhibitors, dose response, SYBR Green, cherry-picked samples (AID 1159567). It counts as functional, cell-based.
Assay [13] in a line: toxicity to human hepatoma HepG2 cells – cell-based, cherry-picked samples, cytotoxicity control, dose response (AID 1159577). It counts as functional.
A short description of assay [14]: luciferase reporter signal reduction – luminescence, H4-C neuroglioblastoma cells, dose response (AID 2458).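 Also: H4 neuroglioblastoma cells stably carrying a luciferase reporter gene fusion.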 It counts as functional, cell-based.
Assay [15] deals with BJ. Nature of the assay: growth inhibition of engineered Ras-driven BJ cells – cell-based, alamar blue fluorescence, cherrypicked samples, dose response (AID 2631).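 Also: confirmatory dose-response assay in RAS-dependent BJ fibroblasts engineered with TERT, LT and ST, with cytotoxicity read by fluorescence.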 It counts as functional. Conditions: Homo sapiens.
Assay [16] has as its system BJ. As to the kind of experiment: BJ-TERT-LT-ST fibroblast viability loss – cell-based, RAS-independent, luminescence, dose response (AID 1935).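 Also: BJ fibroblasts immortalized with TERT plus LT and ST oncogenes.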 As to conditions: Homo sapiens. It counts as functional.
Assay [17] deals with BJ. Nature of the assay: BJ-TERT fibroblast viability loss – cell-based, RAS-independent, luminescence, dose response (AID 1933). Conditions: Homo sapiens. It counts as functional.
Assay [18] is described as follows: DRD fibroblast viability loss – cell-based, non-viral oncogenic, luminescence, dose response (AID 1934). It counts as functional. Conditions: Homo sapiens.
A short description of assay [19]: cells. It counts as functional, cell-based.
Assay [20] has as its system BJ. Nature of the assay: cells. It counts as functional, cell-based. Conditions: Homo sapiens.
A short description of assay [21]: HEK-293T viability loss after treatment – luminescence, T-cell screen hits, cytotoxicity control for TCR NF-kB inhibitor project, dose response (AID 489026).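 Also: cells exposed to compound about 14 hours before the viability readout.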 It counts as functional, cell-based.
The nature of assay [22]: alpha-synuclein stem-loop translation blockers – luminescence, H4 neuroglioblastoma cells, dose confirmation, confirmation (AID 2454).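 Also: H4 neuroglioblastoma cells carrying an alpha-synuclein 5'UTR luciferase reporter; potency for inhibition of the luciferase signal.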 It counts as functional, cell-based.
A short description of assay [23]: luciferase reporter signal suppression in cells – H4 neuroglioma cells, luminescence, dose response (AID 1990). It counts as functional, cell-based.
Assay [24] is described as follows: alpha-synuclein stem-loop luciferase translation blockers – H4 neuroglioma cells, luminescence, confirmation (AID 1988). It counts as functional, cell-based.

Active and inactive are the calls of the source. A value given as a limit tells only on which side of the number the result lay.

Chain of Voltage-dependent T-type calcium channel subunit alpha-1H (O95180 whole entry): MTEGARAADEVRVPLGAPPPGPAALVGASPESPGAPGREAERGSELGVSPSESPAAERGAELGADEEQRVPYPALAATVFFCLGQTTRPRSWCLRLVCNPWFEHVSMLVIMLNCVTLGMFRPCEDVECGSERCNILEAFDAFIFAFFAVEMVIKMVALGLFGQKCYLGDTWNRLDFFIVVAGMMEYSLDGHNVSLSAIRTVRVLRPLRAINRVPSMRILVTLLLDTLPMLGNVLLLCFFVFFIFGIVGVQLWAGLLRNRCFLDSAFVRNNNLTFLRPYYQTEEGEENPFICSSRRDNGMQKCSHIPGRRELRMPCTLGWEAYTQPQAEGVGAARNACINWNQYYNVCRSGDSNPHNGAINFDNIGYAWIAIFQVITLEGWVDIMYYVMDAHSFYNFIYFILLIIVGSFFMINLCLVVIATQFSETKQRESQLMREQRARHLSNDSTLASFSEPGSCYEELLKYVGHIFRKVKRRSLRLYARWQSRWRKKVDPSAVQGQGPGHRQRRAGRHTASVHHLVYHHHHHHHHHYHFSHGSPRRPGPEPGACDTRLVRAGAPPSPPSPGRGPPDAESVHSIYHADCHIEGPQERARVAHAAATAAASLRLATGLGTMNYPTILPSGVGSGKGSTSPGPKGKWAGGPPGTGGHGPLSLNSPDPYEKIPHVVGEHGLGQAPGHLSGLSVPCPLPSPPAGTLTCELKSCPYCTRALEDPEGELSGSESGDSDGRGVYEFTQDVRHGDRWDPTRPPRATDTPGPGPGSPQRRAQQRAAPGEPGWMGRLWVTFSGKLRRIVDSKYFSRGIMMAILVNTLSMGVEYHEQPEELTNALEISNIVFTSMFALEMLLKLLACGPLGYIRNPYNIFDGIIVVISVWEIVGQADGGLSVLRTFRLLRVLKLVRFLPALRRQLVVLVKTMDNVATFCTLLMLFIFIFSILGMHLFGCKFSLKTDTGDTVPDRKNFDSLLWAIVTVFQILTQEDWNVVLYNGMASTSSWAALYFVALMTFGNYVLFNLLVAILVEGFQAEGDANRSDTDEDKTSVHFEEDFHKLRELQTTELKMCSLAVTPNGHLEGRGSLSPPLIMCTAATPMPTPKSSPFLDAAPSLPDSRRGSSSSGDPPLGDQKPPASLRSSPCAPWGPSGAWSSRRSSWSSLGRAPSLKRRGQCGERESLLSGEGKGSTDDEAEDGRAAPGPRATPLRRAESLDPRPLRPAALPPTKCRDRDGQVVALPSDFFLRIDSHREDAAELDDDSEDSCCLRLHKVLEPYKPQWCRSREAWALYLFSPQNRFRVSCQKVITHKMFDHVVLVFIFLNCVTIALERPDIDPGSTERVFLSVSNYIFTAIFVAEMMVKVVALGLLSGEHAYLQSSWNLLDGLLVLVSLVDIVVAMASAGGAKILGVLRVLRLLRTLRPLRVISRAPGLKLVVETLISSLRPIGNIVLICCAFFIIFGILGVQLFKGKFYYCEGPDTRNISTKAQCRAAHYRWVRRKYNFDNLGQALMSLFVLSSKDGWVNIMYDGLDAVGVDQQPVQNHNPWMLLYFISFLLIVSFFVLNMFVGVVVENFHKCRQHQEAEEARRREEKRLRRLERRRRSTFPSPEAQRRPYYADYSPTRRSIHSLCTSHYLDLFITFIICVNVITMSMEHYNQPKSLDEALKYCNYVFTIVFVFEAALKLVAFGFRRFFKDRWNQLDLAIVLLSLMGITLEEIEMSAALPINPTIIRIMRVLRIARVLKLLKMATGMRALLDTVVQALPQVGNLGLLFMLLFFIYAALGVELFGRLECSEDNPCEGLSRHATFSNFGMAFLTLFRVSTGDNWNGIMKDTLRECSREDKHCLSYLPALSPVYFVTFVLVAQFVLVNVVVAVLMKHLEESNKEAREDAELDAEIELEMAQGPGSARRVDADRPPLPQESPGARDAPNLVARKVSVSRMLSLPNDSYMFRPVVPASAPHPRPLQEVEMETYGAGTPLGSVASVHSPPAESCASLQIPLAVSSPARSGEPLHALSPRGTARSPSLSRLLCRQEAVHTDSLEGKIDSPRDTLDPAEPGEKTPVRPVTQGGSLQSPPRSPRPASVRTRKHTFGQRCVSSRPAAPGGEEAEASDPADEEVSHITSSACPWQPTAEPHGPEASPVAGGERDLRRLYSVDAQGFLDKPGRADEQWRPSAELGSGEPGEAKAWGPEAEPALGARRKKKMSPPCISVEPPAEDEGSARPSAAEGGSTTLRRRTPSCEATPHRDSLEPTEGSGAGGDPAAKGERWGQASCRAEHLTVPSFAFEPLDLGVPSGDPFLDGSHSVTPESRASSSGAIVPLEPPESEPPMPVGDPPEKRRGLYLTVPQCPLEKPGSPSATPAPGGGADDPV
Chain of FAD-linked sulfhydryl oxidase ALR (P55789 whole entry): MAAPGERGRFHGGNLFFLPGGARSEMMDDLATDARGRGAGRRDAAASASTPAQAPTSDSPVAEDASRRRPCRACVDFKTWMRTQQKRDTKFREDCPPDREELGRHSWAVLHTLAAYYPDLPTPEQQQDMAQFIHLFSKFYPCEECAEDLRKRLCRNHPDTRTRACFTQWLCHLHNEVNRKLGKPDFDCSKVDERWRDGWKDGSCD
Chain of Melanocortin receptor 4 (P32245 whole entry): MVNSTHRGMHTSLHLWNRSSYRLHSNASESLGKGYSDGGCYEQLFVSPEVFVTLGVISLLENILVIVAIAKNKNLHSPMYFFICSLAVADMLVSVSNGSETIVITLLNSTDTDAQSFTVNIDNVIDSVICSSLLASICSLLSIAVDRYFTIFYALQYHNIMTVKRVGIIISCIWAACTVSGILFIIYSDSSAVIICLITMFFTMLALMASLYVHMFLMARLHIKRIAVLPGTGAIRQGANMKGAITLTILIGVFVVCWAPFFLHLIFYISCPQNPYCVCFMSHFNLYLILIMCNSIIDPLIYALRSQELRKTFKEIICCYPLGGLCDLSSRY
Chain of Cyclin-dependent kinase 5/CDK5 activator 1 (Q00535 whole entry): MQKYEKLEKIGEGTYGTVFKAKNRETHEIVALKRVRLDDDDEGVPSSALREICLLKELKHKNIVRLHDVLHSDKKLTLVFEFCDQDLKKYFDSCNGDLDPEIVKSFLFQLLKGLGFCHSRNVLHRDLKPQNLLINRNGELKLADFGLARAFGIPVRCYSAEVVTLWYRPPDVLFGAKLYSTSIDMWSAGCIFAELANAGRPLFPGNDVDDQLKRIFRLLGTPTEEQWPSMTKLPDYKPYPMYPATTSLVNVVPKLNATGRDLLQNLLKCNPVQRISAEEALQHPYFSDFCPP
Chain of Cyclin-dependent kinase 5/CDK5 activator 1 (Q15078 whole entry, further chain): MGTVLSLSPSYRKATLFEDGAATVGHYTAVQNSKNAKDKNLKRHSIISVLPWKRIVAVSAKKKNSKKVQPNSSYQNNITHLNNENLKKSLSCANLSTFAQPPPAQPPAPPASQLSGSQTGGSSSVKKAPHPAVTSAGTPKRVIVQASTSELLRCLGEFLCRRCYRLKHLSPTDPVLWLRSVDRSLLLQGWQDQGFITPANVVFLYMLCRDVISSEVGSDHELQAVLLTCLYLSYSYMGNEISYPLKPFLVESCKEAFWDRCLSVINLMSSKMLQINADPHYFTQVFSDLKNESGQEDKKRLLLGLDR
Chain of Estrogen receptor beta (Q92731 whole entry): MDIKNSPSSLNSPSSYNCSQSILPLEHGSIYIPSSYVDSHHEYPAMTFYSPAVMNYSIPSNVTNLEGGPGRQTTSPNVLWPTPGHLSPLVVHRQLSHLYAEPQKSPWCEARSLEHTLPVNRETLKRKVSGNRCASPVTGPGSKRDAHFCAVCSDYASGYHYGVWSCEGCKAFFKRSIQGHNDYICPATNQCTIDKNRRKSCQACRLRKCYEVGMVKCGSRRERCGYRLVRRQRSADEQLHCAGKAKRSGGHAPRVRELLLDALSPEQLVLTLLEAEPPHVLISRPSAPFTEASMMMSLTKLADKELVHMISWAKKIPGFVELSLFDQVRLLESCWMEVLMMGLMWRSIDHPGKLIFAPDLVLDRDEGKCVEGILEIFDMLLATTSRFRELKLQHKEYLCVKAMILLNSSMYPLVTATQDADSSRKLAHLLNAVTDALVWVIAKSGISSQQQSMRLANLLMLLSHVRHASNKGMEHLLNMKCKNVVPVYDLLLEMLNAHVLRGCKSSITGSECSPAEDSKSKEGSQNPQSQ

With `OC(CNCCc1ccc(C(F)(F)F)cc1)COc1cccc2ccccc12` (stereo not drawn), the 50% effective concentration (EC50) in assay [1] was 10.7 µM (active); in assay [2], 12.7 µM (active); at Melanocortin receptor 4, > 89.2 µM (inactive); in assay [5], 0.631 µM (active); in [6] it was > 60 µM (inconclusive). Further, the concentration for half-maximal inhibition (IC50) in “cells [3]” is 21.7 µM (active). Moreover, the CC50 in assay [4] is 21.5 µM (active). In addition, the concentration at half-maximal activity (AC50) in assay [7] is 3.47 µM (active).
Regarding `Cc1cc(-c2nsc(=O)o2)c(S(C)(=O)=O)s1`, the AC50 in assay [8] is 3.86 µM (active); in assay [9] it was 29.3 µM (active).
As for `COc1ccccc1NC(=O)NC(N)=O`, the IC50 on Estrogen receptor beta is recorded as > 50 µM (not active).
With `COc1ccc(OC)c(CCNC(=O)CS(=O)(=O)Cc2nc(-c3ccc(C)cc3)oc2C)c1`, the concentration for a half-maximal effect (EC50) in assay [10] is 3.8 µM (active).
In the case of `COc1cc(OC)cc(-c2cc3ccc(OC)cc3cn2)c1`, the half-maximal cytotoxic concentration (CC50) in assay [11] was 21.8 µM (active). Moreover, the AC50 in assay [7] is 3.32 µM (active).
In the case of `Cc1cccc(-c2ccc([C@@H]3[C@H](CO)N4CCCCN(S(=O)(=O)c5cccc(C)c5)C[C@@H]34)cc2)c1`, the AC50 in assay [12] is 0.864 µM (active); in assay [13] it was 8.89 µM (active).
`CCOc1ccccc1C(=O)N1CCN(c2cccc(Cl)c2)CC1`: the EC50 in [14] is 0.229 µM (active); with BJ [15], < 0.104 µM (active); with BJ [16] it was 1.44 µM (active); in the assay with BJ [17], 2.66 µM (inconclusive); in assay [18], 2.65 µM (active); in the assay “cells [19]” it was 0.331 µM (active). The EC50 with BJ [20] was 2.85 µM (inconclusive); in assay [22] it was 0.31 µM (active); in assay [23], < 0.1 µM (active); in assay [24], < 0.1 µM (active). The IC50 in [21] is > 80 µM (inactive).
Regarding `CCCC(=O)N1CCN(c2ccc([N+](=O)[O-])c(NC(C)c3ccccc3)c2)CC1` (stereo not drawn), the EC50 in assay [10] is 5.51 µM (active).
